Broadly, the IC50 is the concentration that gives 50% inhibition. One may read the Kd as the constant that tells how readily two partners part at equilibrium.

We go through 31 molecules from patent publication US20180318473A1, “DRUGS WITH IMPROVED HYDROPHOBICITY FOR INCORPORATION IN MEDICAL DEVICES” (Abraxis BioScience, LLC, priority 2005, published 2018).

In data set [1] the test system is MX-1 mammary tumor cells. The data set is described as follows: Cytotoxic activity on MX-1 mammary tumor cells in culture. The conditions noted are these: for IC50: read-out: Cytotoxicity on MX-1, IC50.
In the next data set the target is albumin (Homo sapiens, UniProt P02768). Nature of the data set: Binding of compounds to albumin.
Chain of albumin (P02768 25-609, species assumed): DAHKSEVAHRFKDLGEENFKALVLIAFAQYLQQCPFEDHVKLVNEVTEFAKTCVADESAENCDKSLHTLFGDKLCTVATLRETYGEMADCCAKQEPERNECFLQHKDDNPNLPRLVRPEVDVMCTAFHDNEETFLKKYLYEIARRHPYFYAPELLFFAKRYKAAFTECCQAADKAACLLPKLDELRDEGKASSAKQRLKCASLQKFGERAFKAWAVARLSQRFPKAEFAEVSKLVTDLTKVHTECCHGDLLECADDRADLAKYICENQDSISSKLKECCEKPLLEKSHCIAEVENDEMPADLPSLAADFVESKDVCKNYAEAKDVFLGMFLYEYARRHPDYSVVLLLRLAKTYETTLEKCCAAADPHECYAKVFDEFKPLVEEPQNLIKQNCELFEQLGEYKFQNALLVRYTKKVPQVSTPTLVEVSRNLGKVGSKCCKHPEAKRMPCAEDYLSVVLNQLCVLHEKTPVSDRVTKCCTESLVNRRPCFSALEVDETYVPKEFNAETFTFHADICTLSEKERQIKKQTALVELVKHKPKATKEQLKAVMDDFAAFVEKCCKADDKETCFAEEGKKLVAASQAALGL
Data set [2] in a line: Hydrophobicity by relative elution time from a C18 HPLC column. Format: physicochemical. The conditions noted are these: for HPLC retention time (min) Condition 1: acetonitrile / ammonium acetate buffer pH 6.4 with 5 mM TBAP gradient, 0.8 mL/min; for HPLC retention time (min) Condition 1 / HPLC retention time (min) Condition 2: column temperature 35° C.; for HPLC retention time (min) Condition 2: acetonitrile/water gradient 50:50 to 90:10, 1 mL/min; for HPLC retention time (min) Condition 2, column temperature 70° C.: acetonitrile/water gradient, 1 mL/min, **column temperature was set at 70° C. The text has this:
To increase the penetration and retention of a drug released from a device such as a stent into the vascular wall or wall of other vessel or tissue, several drugs were modified to increase their hydrophobicity. […] […] The longer the elution time, the more hydrophobic the compound.

Data set [3] has as its system MX-1 mammary tumor cells.
Setting [4] is: MX-1 mammary tumor cells in culture, drug itself.
Setting [5] is: smaller number indicates greater binding affinity, read-out: Albumin Binding, KD.

Where “and” joins values, the source holds several entries; their conditions need not be identical. Identical values can stand only once. Like-named read-outs stand apart in the source and are kept apart here.

As for `CC(=O)OC1C(=O)C2(C)C(O)CC3OCC3(OC(C)=O)C2C(OC(=O)c2ccccc2)C2(O)CC(OC(=O)C(OC(=O)c3ccccc3)C(NC(=O)c3ccccc3)c3ccccc3)C(C)=C1C2(C)C` (centres unmarked) [Compound 1], the half-maximal inhibitory concentration (IC50) with MX-1 mammary tumor cells [1] (setting [4]) worked out at 30 µM. The Kd at albumin (setting [5]) stood at 103 µM.

For the molecule `CC(=O)OC12COC1CC(O)C1(C)C(=O)C(O)C3=C(C)C(OC(=O)C(OC(=O)c4ccccc4)C(NC(=O)OC(C)(C)C)c4ccccc4)CC(O)(C(OC(=O)c4ccccc4)C21)C3(C)C` (centres unmarked) [Compound 2, 2′ BENZOYL DOCETAXEL], in the data set with MX-1 mammary tumor cells [1], the IC50 was found to be 38 µM. Moreover, the dissociation constant (Kd) at albumin (setting [5]) was determined as 8.8 µM.

With `CCc1c2c(nc3ccc(O)cc13)-c1cc3c(c(=O)n1C2)COC(=O)[C@]3(O)CC` [Compound 6], the half-inhibitory concentration (IC50) with MX-1 mammary tumor cells [1] (setting [4]) is 267 µM. Further, in data set [2], the “HPLC retention time (min) Condition 1” value is 7.8 min and the “HPLC retention time (min) Condition 2” value was determined as 2.2 min. For the same molecule, the Kd on albumin (setting [5]) was 484 µM.

In the case of `CCC(=O)Oc1ccc2nc3c(cc2c1)Cn1c-3cc2c(c1=O)COC(=O)C2(CC)OC(=O)CC` (centres unmarked) [Compound 7], the IC50 in the data set with MX-1 mammary tumor cells [1] (setting [4]) is 45 µM. Moreover, in data set [2], the “HPLC retention time (min) Condition 1” value turned out to be 19.8 min and the “HPLC retention time (min) Condition 2, column temperature 70° C.” value is on record as 6.1** min.

Take `CCCC(=O)Oc1ccc2nc3c(cc2c1)Cn1c-3cc2c(c1=O)COC(=O)[C@@]2(CC)OC(=O)CCC` [Compound 8]: the IC50 with MX-1 mammary tumor cells [1] (setting [4]) came to 152 µM. In data set [2], the “HPLC retention time (min) Condition 1” value turned out to be 21.9 min.

Consider `CCC1(OC(=O)C(C)C)C(=O)OCc2c1cc1n(c2=O)Cc2cc3cc(OC(=O)C(C)C)ccc3nc2-1` (centres unmarked) [Compound 9], for which the 50% inhibitory concentration (IC50) in the data set with MX-1 mammary tumor cells [1] (setting [4]) is 23 µM. Besides, the “HPLC retention time (min) Condition 1” value in data set [2] was 22.0 min.

For the molecule `CCCCCC(=O)Oc1ccc2nc3c(cc2c1)Cn1c-3cc2c(c1=O)COC(=O)[C@@]2(CC)OC(=O)CCCCC` [Compound 10, CAMPTOTHECIN 10,20-DI O HEXONATE], the IC50 with MX-1 mammary tumor cells [1] (setting [4]) amounted to 8 µM. For the same molecule, in data set [2], the “HPLC retention time (min) Condition 1” value is 25.3 min.

Regarding `CCC1(OC(=O)CNC(=O)OC(C)(C)C)C(=O)OCc2c1cc1n(c2=O)Cc2cc3cc(OC(=O)CNC(=O)OC(C)(C)C)ccc3nc2-1` (centres unmarked) [Compound 11], in the data set with MX-1 mammary tumor cells [1] (setting [4]), the IC50 worked out at 221 µM. Besides, the “HPLC retention time (min) Condition 1” value in data set [2] was determined as 20.9 min.

As to `CCC1(OC(=O)COC)C(=O)OCc2c1cc1n(c2=O)Cc2cc3cc(OC(=O)COC)ccc3nc2-1` (centres unmarked) [Compound 12], the IC50 with MX-1 mammary tumor cells [1] (setting [4]) came to 372 µM. The “HPLC retention time (min) Condition 1” value in data set [2] stood at 14.1 min.

For `CCC1(OC(=O)CN)C(=O)OCc2c1cc1n(c2=O)Cc2cc3cc(OC(=O)CN)ccc3nc2-1` (centres unmarked) [Compound 13], in the data set on MX-1 mammary tumor cells [1] (setting [4]), the 50% inhibitory concentration (IC50) was determined as 242 µM. In data set [2], the “HPLC retention time (min) Condition 1” value worked out at 6.1 min.

Regarding `CCC1(OC(=O)c2ccccc2)C(=O)OCc2c1cc1n(c2=O)Cc2cc3cc(OC(=O)c4ccccc4)ccc3nc2-1` (centres unmarked) [Compound 14], the IC50 in the data set on MX-1 mammary tumor cells [1] (setting [4]) is 740 µM. Further, the “HPLC retention time (min) Condition 1” value in data set [2] was determined as 22.9 min.

For the molecule `CCC(=O)Oc1ccc2nc3c(c(CC)c2c1)Cn1c-3cc2c(c1=O)COC(=O)[C@@]2(CC)OC(=O)CC` [Compound 15], the half-inhibitory concentration (IC50) with MX-1 mammary tumor cells [1] (setting [4]) worked out at 28 µM. In addition, in data set [2], the “HPLC retention time (min) Condition 1” value worked out at 20.8 min and the “HPLC retention time (min) Condition 2, column temperature 70° C.” value is 9.3** min.

Regarding `CCCCCC(=O)Oc1ccc2nc3c(cc2c1)Cn1c-3cc2c(c1=O)COC(=O)C2(CC)OC(=O)CCCCC` (centres unmarked) [Compound 16], the 50% inhibitory concentration (IC50) in the data set with MX-1 mammary tumor cells [1] (setting [4]) was determined as 4 µM.

On to `C=CCNC1=C2C[C@@H](C)C[C@H](OC)[C@H](O)[C@@H](C)/C=C(\C)[C@H](OC(N)=O)[C@@H](OC)/C=C\C=C(/C)C(=O)NC(=CC1=O)C2=O` [Compound 17AAG, 17AAG, reference compound], for which the IC50 in the data set on MX-1 mammary tumor cells [1] (setting [4]) stood at 3 µM. In addition, in data set [2], the “HPLC retention time (min) Condition 2” value is 14.9 min.

Consider `CCCCCCCCCC(=O)Oc1ccc2nc3c(c(CC)c2c1)Cn1c-3cc2c(c1=O)COC(=O)[C@@]2(CC)OC(=O)CCCCCCCCC` [Compound 17], for which, in the data set on MX-1 mammary tumor cells [1] (setting [4]), the IC50 is 2000 µM. For the same molecule, the “HPLC retention time (min) Condition 2” value in data set [2] was 31.2 min.

As for `CCCCCCCCCCCCCC(=O)Oc1ccc2nc3c(c(CC)c2c1)Cn1c-3cc2c(c1=O)COC(=O)[C@@]2(CC)OC(=O)CCCCCCCCCCCCC` [Compound 18], the “Cytotoxicity on MX-1, IC50” value with MX-1 mammary tumor cells [1] (setting [4]) is “Inactive”. Moreover, the “HPLC retention time (min) Condition 2” value in data set [2] is reported as 31.2 min.

With `CCCCCCCCCCCC(=O)Oc1ccc2nc3c(c(CC)c2c1)Cn1c-3cc2c(c1=O)COC(=O)[C@@]2(CC)OC(=O)CCCCCCCCCCC` [Compound 19], the “Cytotoxicity on MX-1, IC50” value with MX-1 mammary tumor cells [1] (setting [4]) is “Inactive”. Also, the “HPLC retention time (min) Condition 2” value in data set [2] is listed as 31.2 min.

`CCCCCCCCCCCCCCCCCC(=O)Oc1ccc2nc3c(c(CC)c2c1)Cn1c-3cc2c(c1=O)COC(=O)[C@@]2(CC)OC(=O)CCCCCCCCCCCCCCCCC` [Compound 20]: the “Cytotoxicity on MX-1, IC50” value in the data set on MX-1 mammary tumor cells [1] (setting [4]) is on record as “Inactive”. Further, in data set [2], the “HPLC retention time (min) Condition 2” value was 30.6 min.

For `CCc1c2c(nc3ccc(OC(=O)CCCC(C)CC)cc13)-c1cc3c(c(=O)n1C2)COC(=O)[C@@]3(CC)OC(=O)CCCC(C)CC` (some centres unmarked) [Compound 21], the IC50 in the data set with MX-1 mammary tumor cells [1] (setting [4]) came out at 295 µM. For the same molecule, the “HPLC retention time (min) Condition 2” value in data set [2] worked out at 40.2 min.

Turning to `CCCCCCCCCCCCCCCC(=O)Oc1ccc2nc3c(cc2c1)Cn1c-3cc2c(c1=O)COC(=O)C2(CC)OC(=O)CCCCCCCCCCCCCCC` (centres unmarked) [Compound 22], the “Cytotoxicity on MX-1, IC50” value in the data set with MX-1 mammary tumor cells [1] (setting [4]) was “Inactive”. The “HPLC retention time (min) Condition 2” value in data set [2] came out at 30.5 min.

Turning to `COc1cc2c(c(OC)c1OC)-c1ccc(SC)c(=O)cc1[C@@H](NC(=O)CCNC(=O)N[C@H]1CCc3cc(OC)c(OC)c(OC)c3-c3ccc(SC)c(=O)cc31)CC2` [Compound 24], the 50% inhibitory concentration (IC50) in the data set on MX-1 mammary tumor cells [1] was determined as 37 µM. The molecule also returned a Kd on albumin of 109 µM.

In the case of `COc1cc2c(c(OC)c1OC)-c1ccc(SC)c(=O)cc1[C@@H](NC(=O)CCCCCCCCC(=O)N[C@H]1CCc3cc(OC)c(OC)c(OC)c3-c3ccc(SC)c(=O)cc31)CC2` [Compound 25], the IC50 with MX-1 mammary tumor cells [1] turned out to be 155 µM. This molecule also came in with an equilibrium dissociation constant (Kd) at albumin of 30 µM.

`COc1cc2c(c(OC)c1OC)-c1ccc(SC)c(=O)cc1[C@@H](NC(=O)c1cncc(C(=O)N[C@H]3CCc4cc(OC)c(OC)c(OC)c4-c4ccc(SC)c(=O)cc43)c1)CC2` [Compound 26]: the half-inhibitory concentration (IC50) in the data set on MX-1 mammary tumor cells [1] came out at 361 µM. At albumin, this molecule showed a Kd of 28 µM.

Take `COc1cc2c(c(OC)c1OC)-c1ccc(SC)c(=O)cc1[C@@H](NC(=O)C1CCCC(C(=O)N[C@H]3CCc4cc(OC)c(OC)c(OC)c4-c4ccc(SC)c(=O)cc43)C1)CC2` (some centres unmarked) [Compound 27]: binding on albumin was put at a Kd of 52 µM.

Take `COC1C=CC=C(C)C(=O)NC2=CC(=O)C(N3CC3C)=C(CC(C)CC(OC)C(O)C(C)C=C(C)C1OC(N)=O)C2=O` (centres unmarked) [Compound 30, 17-METHYLAZIRIDINYL-17-DEMETHOXYGELDANAMYCIN]: inhibition in the data set with MX-1 mammary tumor cells [3] was half-maximal at 0.3 µM (IC50). Besides, the “HPLC retention time (min) Condition 2” value in data set [2] was 11.1 min and 11.6 min.

`CC[C@@]1(O)C(=O)OCc2c1cc1n(c2=O)Cc2cc3cc(O)ccc3nc2-1` [Compound 32]: in the data set with MX-1 mammary tumor cells [1], the IC50 turned out to be 13 µM. Besides, in data set [2], the “HPLC retention time (min) Condition 1” value is on record as 6.1 min and the “HPLC retention time (min) Condition 2” value was 1.9 min. Moreover, on albumin, binding was put at a Kd of 1200 µM.

Take `CC(=O)O[C@@]12CO[C@@H]1C[C@H](O)[C@@]1(C)C(=O)[C@H](O)C3=C(C)[C@@H](OC(=O)[C@H](O)[C@@H](NC(=O)OC(C)(C)C)c4ccccc4)C[C@@](O)([C@@H](OC(=O)c4ccccc4)[C@H]21)C3(C)C` [Docetaxel, reference compound]: the “HPLC retention time (min) Condition 2” value in data set [2] is 9.0 min. In addition, on albumin (setting [5]), the Kd amounted to 5.45 µM.

Consider `COC1=C2C[C@@H](C)C[C@H](OC)[C@H](O)[C@@H](C)/C=C(\C)[C@H](OC(N)=O)[C@@H](OC)/C=C\C=C(/C)C(=O)NC(=CC1=O)C2=O` [Geldanamycin, reference compound], for which the 50% inhibitory concentration (IC50) in the data set with MX-1 mammary tumor cells [1] (setting [4]) was 0.5 µM. Also, the “HPLC retention time (min) Condition 2” value in data set [2] is recorded as 10.8 min.

In the case of `CC(=O)O[C@H]1C(=O)[C@@]2(C)[C@H]([C@H](OC(=O)c3ccccc3)[C@]3(O)C[C@H](OC(=O)[C@H](O)[C@@H](NC(=O)c4ccccc4)c4ccccc4)C(C)=C1C3(C)C)[C@]1(OC(C)=O)CO[C@@H]1C[C@@H]2O` [Paclitaxel, reference compound], in data set [2], the “HPLC retention time (min) Condition 2” value was determined as 10.5 min. Moreover, the dissociation constant (Kd) at albumin (setting [5]) turned out to be 39.8 µM.

As to `CO[C@H]1C[C@@H]2CC[C@@H](C)[C@@](O)(O2)C(=O)C(=O)N2CCCC[C@H]2C(=O)O[C@H]([C@H](C)C[C@@H]2CC[C@@H](O)[C@H](OC)C2)CC(=O)[C@H](C)/C=C(\C)[C@@H](O)[C@@H](OC)C(=O)[C@H](C)C[C@H](C)/C=C/C=C/C=C/1C` [Rapamycin, reference compound], the half-maximal inhibitory concentration (IC50) in the data set on MX-1 mammary tumor cells [1] (setting [4]) was found to be 27 µM. For the same molecule, the Kd at albumin (setting [5]) stood at 102 µM.

Take Benzoyl rapamycin [Compound 23]: the “HPLC retention time (min) Condition 2, column temperature 70° C.” value in data set [2] is 32.6** min.
